Test results as given in the NIST ThermoML archive (doi:10.1021/je060142u).
± gives the expanded uncertainty stated by the source.

Experiment: activity coefficient (dimensionless); of the first substance listed, at infinite dilution; xn = mol fraction of the nth substance listed
Conditions: 101 kPa, Liquid, Chromatography, x1 = 0

Compound	activity coefficient (303.15 K)	activity coefficient (313.15 K)	activity coefficient (323.15 K)	activity coefficient (333.15 K)	activity coefficient (343.15 K)
CCCCCCC [heptane] + CCCCn1cc[n+](C)c1.F[B-](F)(F)F	92.5 ± 8	86.7 ± 7.5	81.7 ± 7.1	78.9 ± 6.8	71.5 ± 6.2
CCc1ccccc1 [ethylbenzene] + CCCCn1cc[n+](C)c1.F[B-](F)(F)F	5.61 ± 0.48	5.54 ± 0.48	5.49 ± 0.47	5.42 ± 0.47	5.37 ± 0.46
CCCCCCCC [octane] + CCCCn1cc[n+](C)c1.F[B-](F)(F)F	139 ± 12	136 ± 12	127 ± 11	119 ± 10	111 ± 9.6
CCCCC [pentane] + CCCCn1cc[n+](C)c1.F[B-](F)(F)F	40.7 ± 3.5	39.7 ± 3.4	38.1 ± 3.3	36.3 ± 3.1	35.8 ± 3.1
Cc1cccc(C)c1 [1,3-dimethylbenzene] + CCCCn1cc[n+](C)c1.F[B-](F)(F)F	5.25 ± 0.45	5.24 ± 0.45	5.23 ± 0.45	5.23 ± 0.45	5.22 ± 0.45
Cc1ccccc1C [1,2-dimethylbenzene] + CCCCn1cc[n+](C)c1.F[B-](F)(F)F	4.2 ± 0.36	4.18 ± 0.36	4.16 ± 0.36	4.16 ± 0.36	4.14 ± 0.36
Cc1ccc(C)cc1 [1,4-dimethylbenzene] + CCCCn1cc[n+](C)c1.F[B-](F)(F)F	4.97 ± 0.43	5.15 ± 0.44	5.28 ± 0.46	5.33 ± 0.46	5.47 ± 0.47
C=Cc1ccccc1 [styrene] + CCCCn1cc[n+](C)c1.F[B-](F)(F)F	2.29 ± 0.2	2.29 ± 0.2	2.34 ± 0.2	2.41 ± 0.21	2.48 ± 0.21
c1ccccc1 [benzene] + CCCCn1cc[n+](C)c1.F[B-](F)(F)F	1.74 ± 0.15	1.76 ± 0.15	1.77 ± 0.15	1.8 ± 0.15	1.83 ± 0.16
CCCCCC [hexane] + CCCCn1cc[n+](C)c1.F[B-](F)(F)F	60.8 ± 5.3	57.5 ± 5	54.2 ± 4.7	50.5 ± 4.4	47 ± 4.1
CC(C)CC(C)(C)C [2,2,4-trimethylpentane] + CCCCn1cc[n+](C)c1.F[B-](F)(F)F	92.7 ± 8	88.6 ± 7.7	83.8 ± 7.3	79.5 ± 6.9	75.5 ± 6.5
CC1CCCCC1 [methylcyclohexane] + CCCCn1cc[n+](C)c1.F[B-](F)(F)F	48.7 ± 4.2	45.6 ± 3.9	42.4 ± 3.7	39.8 ± 3.5	37.3 ± 3.2
CCCCCCCCC [nonane] + CCCCn1cc[n+](C)c1.F[B-](F)(F)F	224 ± 20	193 ± 17	187 ± 16	179 ± 16	170 ± 15
C1CCCCC1 [cyclohexane] + CCCCn1cc[n+](C)c1.F[B-](F)(F)F	32.4 ± 2.8	30.2 ± 2.6	28.3 ± 2.5	26.9 ± 2.3	24.6 ± 2.1
CCCCCCCCCC [decane] + CCCCn1cc[n+](C)c1.F[B-](F)(F)F	414 ± 36	335 ± 29	320 ± 28	296 ± 26	279 ± 24
C1=CCCCC1 [cyclohexene] + CCCCn1cc[n+](C)c1.F[B-](F)(F)F	14.1 ± 1.2	13.5 ± 1.2	12.9 ± 1.1	12.4 ± 1.1	11.9 ± 1
Cc1ccccc1 [toluene] + CCCCn1cc[n+](C)c1.F[B-](F)(F)F	2.91 ± 0.25	2.94 ± 0.25	2.95 ± 0.25	2.99 ± 0.26	3.03 ± 0.26
